{"source": "paper PMC10062662", "about": "“Quantitative determination of lurbinectedin, its unbound fraction and its metabolites in human plasma utilizing ultra-performance LC–MS/MS” (PLOS ONE, 2023)", "key": {"[1]": {"assay": "Non-specific binding in the absence of plasma proteins (RED method development)", "format": "physicochemical", "conditions": "RED devices", "text": "To counteract the NSB, Sigmacote®-treated pipette tips were used."}, "[2]": {"format": "in vitro ADME", "conditions": "20 ng/mL", "procedure": "To ensure correct sample collection during the clinical trial procedures, whole-blood (using K3-EDTA as anticoagulant) stability was studied by spiking the blood (lurbinectedin at 20 ng/mL and M4 and M6 at 10 ng/mL). Aliquots of the whole blood were then centrifuged at 4°C for 0, 30, 60, 90 and 120 minutes post equilibration (15 minutes at 37°C) to produce plasma, which was then frozen prior to analysis. This was performed at room temperature (and in an ice bath for lurbinectedin). The derived plasma samples were analyzed in triplicate, and the criterion for acceptance was defined as having a response within ±15% of the zero-minute sample."}, "[3]": {"assay": "Plasma protein binding by RED in artificial plasma (PBS with recombinant human AAG and albumin)", "format": "in vitro ADME", "conditions": "human; for fraction unbound at 8 h, 500 ng/mL: lurbinectedin 500 ng/mL", "text": "(§1) RED was considered the best alternative over other methods (e.g., ultrafiltration) to separate lurbinectedin unbound fraction (fu), due to high non-specific binding (NSB) of lurbinectedin leading to adsorption. The RED device consists of a cylinder of dialysis membrane with an 8-kDa molecular weight cut-off held in place by a polytetrafluoroethylene support; the dialysis membrane tube is closed at one end. The RED devices are disposable and used in a reusable polytetrafluoroethylene support plate (holds a maximum of 48 devices). The design of the plate and device allows for PBS to be added in such a way that it can circulate freely around the cylinder of dialysis membrane. In use, spiked plasma (400 μL) is added to the dialysis membrane cylinder part of the RED device, and PBS (600 μL) is added to the other side. The plate, device and volumes used result in a consistent fluid level across both sides of the membrane, preventing mass movement of fluid across the membrane due to hydrostatic pressure.\n(§2) Each measurement was performed using three RED devices; the devices were placed in the plate and spiked plasma and PBS were added. The plate was then mixed on an incubating microplate shaker at 100 rpm and 37°C for 8 hours.\n(§3) Both the plasma (diluted 1 in 20 with plasma:PBS 1:1, v:v) and PBS (diluted with plasma 1:1, v:v) were assayed in triplicate using the extraction and UPLC-MS/MS method described above. Transfer of the PBS from the incubation plate into an equivalent volume of plasma prior to assay was performed using pipette tips that had been pre-treated with Sigmacote®.\n(§4) PPB of lurbinectedin was also studied in artificial plasma (PBS with recombinant human AAG and albumin) at different levels of AAG, albumin and lurbinectedin to estimate the dissociation rate constants for each of these plasma proteins. Several experimental conditions, performed in triplicate, with triplicate analyses, were explored:\n(§5) • Condition 1 with lurbinectedin at 500 ng/mL, AAG at 0, 0.25, 0.75, 1, 2 and 4 mg/mL and albumin at 40 mg/mL. • Condition 2 with lurbinectedin at 500 ng/mL, AAG at 1 mg/mL and albumin at 25, 35, 40, 45 and 50 mg/mL. • Condition 3 with lurbinectedin at 50, 75, 100, 250 and 500 ng/mL, AAG at 1 mg/mL and albumin at 40 mg/mL."}, "[4]": {"biological_target": "T1, recombinant human AAG and albumin (Homo sapiens, UniProt P02768)", "T1 construct": "purchased Sigma-Aldrich", "T1 sequence (P02768 25-609)": "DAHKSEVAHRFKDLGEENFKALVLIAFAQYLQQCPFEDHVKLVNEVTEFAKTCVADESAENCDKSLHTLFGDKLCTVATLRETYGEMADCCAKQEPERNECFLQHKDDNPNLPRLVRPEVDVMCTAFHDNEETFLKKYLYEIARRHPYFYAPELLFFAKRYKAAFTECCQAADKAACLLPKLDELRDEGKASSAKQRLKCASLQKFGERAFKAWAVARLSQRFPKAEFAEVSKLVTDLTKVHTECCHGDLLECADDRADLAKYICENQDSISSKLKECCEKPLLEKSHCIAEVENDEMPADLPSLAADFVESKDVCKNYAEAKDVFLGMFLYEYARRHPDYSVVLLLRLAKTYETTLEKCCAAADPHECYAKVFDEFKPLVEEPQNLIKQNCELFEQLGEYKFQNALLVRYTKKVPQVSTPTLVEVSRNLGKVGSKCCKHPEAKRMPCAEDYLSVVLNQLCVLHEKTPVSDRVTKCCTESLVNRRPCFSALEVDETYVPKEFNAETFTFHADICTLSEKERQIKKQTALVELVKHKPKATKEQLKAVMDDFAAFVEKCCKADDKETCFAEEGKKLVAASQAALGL", "assay": "Plasma protein binding by RED in artificial plasma (PBS with recombinant human AAG and albumin)", "format": "in vitro ADME", "conditions": "without AAG, albumin 40 mg/mL, lurbinectedin 500 ng/mL", "text": "as §1, §2, §3, §4, §5"}, "[5]": {"system": "recombinant human AAG and albumin", "assay": "Plasma protein binding by RED in artificial plasma (PBS with recombinant human AAG and albumin)", "format": "in vitro ADME", "text": "as §1, §2, §3, §4, §5"}, "[6]": {"set-up": "method as in PMID 30090974", "conditions": "cited from earlier work; for reduction of total plasma clearance: 443 cancer patients"}, "[7]": {"assay": "Lurbinectedin concentration in treated patient plasma sample (UPLC-MS/MS)", "format": "in vivo, human", "conditions": "single treated patient plasma sample of Fig 2", "procedure": "The sample extraction was performed by adding 100 μL of the CS, QC or test sample, 50 μL of aqueous IS solution and 50 μL of 1 M ammonium hydroxide to a 300-μL 96-well microtiter plate. This was then mixed and transferred to a 200-mg Isolute SLE+ plate. After 5 minutes of equilibrium, the samples were then eluted from the SLE plate with 1 mL of MTBE into glass inserts and dried under nitrogen. The samples were then reconstituted with 40 μL of acetonitrile:water (1:1, v:v) with 0.1% of formic acid prior to analysis.\nThe ultra-performance liquid chromatography (UPLC) system was coupled to a triple quadrupole mass spectrometer. The UPLC system was a Acquity system (Waters, Milford, MA, USA) and composed of a binary pump, column oven and cooled auto sampler. The mass spectrometer was a TQD with an electrospray ionization source from Waters.\nThe analytical column was a BEH C18 (1.7 μm, 50 × 2.1 mm) and was used in conjunction with a pre-column frit (0.2 μm, 2.1 mm) from Waters. The chromatographic separation was performed at 50°C with a flow rate of 0.4 mL/minute utilizing a linear gradient of water (A) and acetonitrile (B), both with 0.1% ammonium hydroxide: 10% to 100% B from 0.00 to 1.00 minute; isocratic at 100% B for 1.50 minute, then returning to initial conditions from 2.50 to 2.51 minutes with a total run time of 3.5 minutes. The samples were kept at 10°C until injection (10 μL). […]"}}, "note": "Like-named read-outs stand apart in the source and are kept apart here."}
{"smiles": "COc1ccc2[nH]c3c(c2c1)CCN[C@]31CS[C@@H]2c3c(OC(C)=O)c(C)c4c(c3[C@H](COC1=O)N1[C@@H]2[C@H]2c3c(cc(C)c(OC)c3O)C[C@@H]([C@@H]1O)N2C)OCO4", "note": "[Lurbinectedin]", "values": [{"measurement": "non-specific binding (NSB)", "setting": "[1]", "value": "very high levels of NSB"}, {"measurement": "stability in human whole K3-EDTA blood", "setting": "[2]", "value": "≥ 120", "unit": "min"}, {"measurement": "fraction unbound at 8 h, 500 ng/mL", "setting": "[3]; AAG 0.25 mg/mL, albumin 40 mg/mL, read-out: mean percent unbound", "value": 0.0168}, {"measurement": "fraction unbound at 8 h, 500 ng/mL", "setting": "[3]; AAG 0.75 mg/mL, albumin 40 mg/mL, read-out: mean percent unbound", "value": 0.00604}, {"measurement": "fraction unbound at 8 h, 500 ng/mL", "setting": "[3]; AAG 1 mg/mL, albumin 40 mg/mL, read-out: mean percent unbound", "value": 0.00473}, {"measurement": "fraction unbound at 8 h, 500 ng/mL", "setting": "[3]; AAG 2 mg/mL, albumin 40 mg/mL, read-out: mean percent unbound", "value": 0.00259}, {"measurement": "fraction unbound at 8 h, 500 ng/mL", "setting": "[3]; AAG 4 mg/mL, albumin 40 mg/mL, read-out: mean percent unbound", "value": 0.00101}, {"measurement": "fraction unbound at 8 h, 500 ng/mL", "setting": "[3]; condition 2: varying albumin 25-50 mg/mL, AAG 1 mg/mL, read-out: fu (percent unbound)", "value": 0.00404}, {"measurement": "fraction unbound at 8 h", "setting": "[3]; condition 3: varying lurbinectedin 50-500 ng/mL, AAG 1 mg/mL, albumin 40 mg/mL, read-out: fu (percent unbound)", "value": 0.00393}, {"measurement": "fraction unbound at 8 h, 500 ng/mL", "setting": "[4]; human, read-out: mean percent unbound", "value": 0.0895}, {"measurement": "percent bound", "setting": "[4]", "value": 91.1, "unit": "%"}, {"measurement": "percent bound", "setting": "[5]; AAG 0.25 mg/mL, albumin 40 mg/mL, lurbinectedin 500 ng/mL", "value": 98.3, "unit": "%"}, {"measurement": "percent bound", "setting": "[5]; AAG 0.75 mg/mL, albumin 40 mg/mL, lurbinectedin 500 ng/mL", "value": 99.4, "unit": "%"}, {"measurement": "percent bound", "setting": "[5]; AAG 1 mg/mL, albumin 40 mg/mL, lurbinectedin 500 ng/mL", "value": 99.5, "unit": "%"}, {"measurement": "percent bound", "setting": "[5]; AAG 2 mg/mL, albumin 40 mg/mL, lurbinectedin 500 ng/mL", "value": 99.7, "unit": "%"}, {"measurement": "percent bound", "setting": "[5]; AAG 4 mg/mL, albumin 40 mg/mL, lurbinectedin 500 ng/mL", "value": 99.9, "unit": "%"}, {"measurement": "percent bound", "setting": "[5]; condition 2: varying albumin 25-50 mg/mL, AAG 1 mg/mL, lurbinectedin 500 ng/mL", "value": 99.6, "unit": "%"}, {"measurement": "percent bound", "setting": "[5]; condition 3: varying lurbinectedin 50-500 ng/mL, AAG 1 mg/mL, albumin 40 mg/mL", "value": 99.6, "unit": "%"}, {"measurement": "hepatic extraction ratio", "setting": "[6]", "value": 0.19}, {"measurement": "reduction of total plasma clearance", "setting": "[6]; high alpha-1-acid glycoprotein (AAG)", "value": 28, "unit": "%"}, {"measurement": "reduction of total plasma clearance", "setting": "[6]; low albumin", "value": 20, "unit": "%"}, {"measurement": "plasma concentration in a treated patient sample", "setting": "[7]", "value": 177, "unit": "ng/mL"}]}
